Experimental findings from US11590139B2, “Substituted aminopurine compounds, compositions thereof, and methods of treatment therewith” (Signal Pharmaceuticals, LLC, priority 2014, dated 2023) are described below.

Some results are limits rather than exact numbers.

One assay deals with Lox-IMVI melanoma cell line. Kind of assay: Lox-IMVI anti-proliferative assay (growth inhibition, Cell Titer-Glo). The following applies: Homo sapiens; IC50 activity level in the cell-based Lox-IMVI anti-proliferative assay; read-out: Activity. Format: cell-based, human. The procedure, abridged:
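Lox-IMVI cells in RPMI+10% FBS exposed 72 h at 37 °C to 10-point, 3-fold dilutions (0.5 nM–10 μM; 0.2% DMSO final), in duplicate. Viability by Cell Titer-Glo luminescence, with a t0 cell-number reading; data as % of DMSO control; IC50 from a four-parameter logistic fit.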
For orientation: In ATP-based viability assays light output follows the ATP content of the culture.
In the case of `CC[C@@H](CO)Nc1ncc2nc(Nc3c(Cl)cc(F)cc3Cl)n([C@H]3CC[C@@H](C(N)=O)CC3)c2n1` [Example 145, (1R,4s)-4-(8-(2,6-dichloro-4-fluorophenylamino)-2-((S)-1-hydroxybutan-2-ylamino)-9H-purin-9-yl)cyclohexanecarboxamide], the IC50 is > 1000 nM.
As for `NC(=O)[C@H]1CC[C@@H](n2c(Nc3c(Cl)cc(Cl)cc3Cl)nc3cnc(N[C@@H]4CCOC[C@H]4F)nc32)CC1` [Example 274, (1S,4s)-4-(2-((3S,4R)-3-fluorotetrahydro-2H-pyran-4-ylamino)-8-(2,4,6-trichlorophenylamino)-9H-purin-9-yl)cyclohexanecarboxamide], the IC50 is < 250 nM.
Turning to `NC(=O)[C@H]1CC[C@@H](n2c(Nc3c(F)cc(Cl)cc3F)nc3cnc(NC4COCC4O)nc32)CC1` (stereo partly drawn) [Example 184, (1s,4s)-4-(8-(4-chloro-2,6-difluorophenylamino)-2-(4-hydroxytetrahydrofuran-3-ylamino)-9H-purin-9-yl)cyclohexanecarboxamide], the IC50 was > 1000 nM.
The same measure, in the same setting: for `NC(=O)[C@H]1CC[C@@H](n2c(Nc3c(F)cc(Cl)cc3Cl)nc3cnc(NC4CC5(COC5)C4)nc32)CC1` [Example 195, (1s,4s)-4-(2-(2-oxaspiro[3.3]heptan-6-ylamino)-8-(2,4-dichloro-6-fluorophenylamino)-9H-purin-9-yl)cyclohexanecarboxamide] the value was 250 to 500 nM; for `NC(=O)[C@H]1CC[C@@H](n2c(Nc3c(F)cc(F)cc3Cl)nc3cnc(NC4CCC4)nc32)CC1` [Example 117, (1s,4s)-4-(8-(2-chloro-4,6-difluorophenylamino)-2-(cyclobutylamino)-9H-purin-9-yl)cyclohexanecarboxamide], 500 to 1000 nM; for `Cc1cc(Cl)c(Nc2nc3cnc(NC4CCOCC4)nc3n2[C@H]2CC[C@@H](C(N)=O)CC2)cc1C` [Example 101, (1s,4s)-4-(8-(2-chloro-4,5-dimethylphenylamino)-2-(tetrahydro-2H-pyran-4-ylamino)-9H-purin-9-yl)cyclohexanecarboxamide], > 1000 nM.
Still for that read-out and setting: for `Cc1ccc(Nc2nc3cnc(NC4CCOCC4)nc3n2[C@H]2CC[C@@H](C(N)=O)CC2)c(Cl)c1Cl` [Example 85, (1s,4s)-4-(8-(2,3-dichloro-4-methylphenylamino)-2-(tetrahydro-2H-pyran-4-ylamino)-9H-purin-9-yl)cyclohexanecarboxamide] the value was > 1000 nM.
Regarding `C[C@@H]1CC[C@@H](Nc2ncc3nc(Nc4ccc(Cl)c(F)c4F)n([C@H]4CC[C@@H](C(N)=O)CC4)c3n2)C[C@H]1O` [Example 357, (1S,4s)-4-(8-(4-chloro-2,3-difluorophenylamino)-2-((1R,3R,4R)-3-hydroxy-4-methylcyclohexylamino)-9H-purin-9-yl)cyclohexanecarboxamide], the IC50 was > 1000 nM.
On the same count and under the same terms, for `NC(=O)[C@H]1CC[C@@H](n2c(Nc3c(F)cccc3Cl)nc3cnc(N[C@@H]4CC[C@@H](O)C4)nc32)CC1` [Example 208, (1S,4s)-4-(8-(2-chloro-6-fluorophenylamino)-2-((1R,3R)-3-hydroxycyclopentylamino)-9H-purin-9-yl)cyclohexanecarboxamide] the value was > 1000 nM; for `NC(=O)[C@H]1CC[C@@H](n2c(Nc3ccc(F)c(F)c3F)nc3cnc(N[C@@H]4CCC[C@H]4O)nc32)CC1` [Example 264, (1S,4s)-4-(2-((1R,2R)-2-hydroxycyclopentylamino)-8-(2,3,4-trifluorophenylamino)-9H-purin-9-yl)cyclohexanecarboxamide], > 1000 nM.
The same measure, in the same setting: for `CC[C@@H](CO)Nc1ncc2nc(Nc3ccc(F)c(F)c3F)n([C@H]3CC[C@@H](C(N)=O)CC3)c2n1` [Example 151, (1R,4s)-4-(2-((S)-1-hydroxybutan-2-ylamino)-8-(2,3,4-trifluorophenylamino)-9H-purin-9-yl)cyclohexanecarboxamide] the value was > 1000 nM; for `CS(=O)(=O)N1CCC(Nc2ncc3nc(Nc4c(F)cccc4Cl)n([C@H]4CC[C@@H](C(N)=O)CC4)c3n2)CC1` [Example 114, (1s,4s)-4-(8-(2-chloro-6-fluorophenylamino)-2-(1-(methylsulfonyl)piperidin-4-ylamino)-9H-purin-9-yl)cyclohexanecarboxamide], > 1000 nM; for `NC(=O)[C@H]1CC[C@@H](n2c(Nc3c(Cl)cc(Cl)cc3Cl)nc3cnc(NC4CCC(F)(F)CC4)nc32)CC1` [Example 88, (1s,4s)-4-(2-(4,4-difluorocyclohexylamino)-8-(2,4,6-trichlorophenylamino)-9H-purin-9-yl)cyclohexanecarboxamide], 500 to 1000 nM.
Still for that read-out and setting: for `NC(=O)[C@H]1CC[C@@H](n2c(Nc3ccc(Cl)c(F)c3F)nc3cnc(N[C@H]4CCC[C@@H](O)C4)nc32)CC1` [Example 375, (1R,4s)-4-(8-(4-chloro-2,3-difluorophenylamino)-2-((1S,3R)-3-hydroxycyclohexylamino)-9H-purin-9-yl)cyclohexanecarboxamide] the value was > 1000 nM.

Still in this assay, the particulars now being: Homo sapiens; Lox-IMVI anti-proliferative assay, IC50 activity level; read-out: Activity.
For the compound `NC(=O)[C@H]1CC[C@@H](n2c(Nc3c(F)cc(Cl)cc3Cl)nc3cnc(N[C@@H]4CCCC[C@H]4O)nc32)CC1` [Example 470, (1S,4s)-4-(8-(2,4-dichloro-6-fluorophenylamino)-2-((1R,2R)-2-hydroxycyclohexylamino)-9H-purin-9-yl)cyclohexanecarboxamide], the IC50 was > 1000 nM.
Take `C[C@@H](CO)Nc1ncc2nc(Nc3c(Cl)cc(Cl)cc3Cl)n([C@H]3CC[C@](C)(C(N)=O)CC3)c2n1` [Example 481, (1S,4r)-4-(2-((S)-1-hydroxypropan-2-ylamino)-8-(2,4,6-trichlorophenylamino)-9H-purin-9-yl)-1-methylcyclohexanecarboxamide]: the IC50 is > 1000 nM.
Still for that read-out and setting: for `NC(=O)[C@H]1CC[C@@H](n2c(Nc3c(F)cccc3Cl)nc3cnc(N[C@@H]4CCC[C@@H](O)C4)nc32)CC1` [Example 416, (1S,4s)-4-(8-(2-chloro-6-fluorophenylamino)-2-((1R,3R)-3-hydroxycyclohexylamino)-9H-purin-9-yl)cyclohexanecarboxamide] the value was > 1000 nM; for `COC(=O)N1CCC[C@@H](Nc2ncc3nc(Nc4c(Cl)cc(Cl)cc4Cl)n([C@H]4CC[C@@H](C(N)=O)CC4)c3n2)C1` [Example 409, (R)-methyl 3-(9-((1s,4S)-4-carbamoylcyclohexyl)-8-(2,4,6-trichlorophenylamino)-9H-purin-2-ylamino)piperidine-1-carboxylate], 500 to 1000 nM.
Still for that read-out and setting: next, `NC(=O)[C@H]1CC[C@@H](n2c(Nc3c(Cl)cc(F)cc3Cl)nc3cnc(N[C@H]4CCC(F)(F)C4)nc32)CC1` [Example 585, (1R,4s)-4-(8-(2,6-dichloro-4-fluorophenylamino)-2-((S)-3,3-difluorocyclopentylamino)-9H-purin-9-yl)cyclohexanecarboxamide]: 500 to 1000 nM; `C[C@]1(C(N)=O)CC[C@@H](n2c(Nc3c(F)cc(C#N)cc3Cl)nc3cnc(NC4CCOCC4)nc32)CC1` [Example 525, (1s,4s)-4-(8-(2-chloro-4-cyano-6-fluorophenylamino)-2-(tetrahydro-2H-pyran-4-ylamino)-9H-purin-9-yl)-1-methylcyclohexanecarboxamide]: < 250 nM.
The same measure, in the same setting: for `C[C@]1(O)CCC[C@@H](Nc2ncc3nc(Nc4c(F)cc(F)cc4Cl)n([C@H]4CC[C@@H](C(N)=O)CC4)c3n2)C1` [Example 425, (1S,4s)-4-(8-(2-chloro-4,6-difluorophenylamino)-2-((1R,3S)-3-hydroxy-3-methylcyclohexylamino)-9H-purin-9-yl)cyclohexanecarboxamide] the value was > 1000 nM.

The assay is the same for the next values; noted with them: Homo sapiens; Lox-IMVI melanoma cell line, anti-proliferative assay; read-out: Activity (IC50 activity level).
Consider `Cc1ccc(S(=O)(=O)N2CCC[C@@H](Nc3ncc4nc(Nc5c(F)cc(C#N)cc5F)n([C@H]5CC[C@@H](C(N)=O)CC5)c4n3)C2)cc1` [Example 790, (1S,4s)-4-(8-(4-cyano-2,6-difluorophenylamino)-2-((R)-1-tosylpiperidin-3-ylamino)-9H-purin-9-yl)cyclohexanecarboxamide], for which the IC50 is > 1000 nM.
On the same count and under the same terms, for `C[C@]1(C(N)=O)CC[C@@H](n2c(Nc3c(Cl)cc(Cl)cc3Cl)nc3cnc(N[C@@H]4CCOC[C@H]4F)nc32)CC1` [Example 718, (1S,4s)-4-(2-((3S,4R)-3-fluorotetrahydro-2H-pyran-4-ylamino)-8-(2,4,6-trichlorophenylamino)-9H-purin-9-yl)-1-methylcyclohexanecarboxamide] the value was < 250 nM; for `C[C@]1(C(N)=O)CC[C@@H](n2c(Nc3c(F)cc(Cl)cc3Cl)nc3cnc(NC4CCC4)nc32)CC1` [Example 605, (1s,4s)-4-(2-(cyclobutylamino)-8-(2,4-dichloro-6-fluorophenylamino)-9H-purin-9-yl)-1-methylcyclohexanecarboxamide], < 250 nM.
The same measure, in the same setting: for `CC(=O)N1CCC[C@@H](Nc2ncc3nc(Nc4c(F)cc(Cl)cc4F)n([C@H]4CC[C@@H](C(N)=O)CC4)c3n2)C1` [Example 713, (1S,4s)-4-(2-((R)-1-acetylpiperidin-3-ylamino)-8-(4-chloro-2,6-difluorophenylamino)-9H-purin-9-yl)cyclohexanecarboxamide] the value was > 1000 nM.
On the same count and under the same terms, for `CC(C)OC(=O)N1CCC[C@@H](Nc2ncc3nc(Nc4c(F)cc(Cl)cc4F)n([C@H]4CC[C@@H](C(N)=O)CC4)c3n2)C1` [Example 773, (R)-isopropyl 3-(9-((1s,4S)-4-carbamoylcyclohexyl)-8-(4-chloro-2,6-difluorophenylamino)-9H-purin-2-ylamino)piperidine-1-carboxylate] the value was 500 to 1000 nM; for `CC(=O)N1CCC[C@@H](Nc2ncc3nc(Nc4c(Cl)cc(C(F)(F)F)cc4Cl)n([C@H]4CC[C@@H](C(N)=O)CC4)c3n2)C1` [Example 798, (1S,4s)-4-(2-((R)-1-acetylpiperidin-3-ylamino)-8-(2,6-dichloro-4-(trifluoromethyl)phenylamino)-9H-purin-9-yl)cyclohexanecarboxamide], > 1000 nM.
